Measurements reported in ChEMBL document CHEMBL3739399, “Discovery of Indazole Derivatives as a Novel Class of Bacterial Gyrase B Inhibitors” (ACS Med Chem Lett, 2015).
Converted amounts (≈) assume the structure as drawn.

How the values were obtained:
[1] = molecular target: DNA gyrase subunit B (Staphylococcus aureus, UniProt P0A0K8); experiment: Inhibition of Staphylococcus aureus Gyrase B ATPase activity by fluorescence analysis
[2] = Inhibition of Staphylococcus aureus topoisomerase 4 by fluorescence analysis
[3] = tested on: Staphylococcus aureus; experiment: Antibacterial activity against methicillin-sensitive Staphylococcus aureus 42 for 18 to 20 hrs by broth microdilution method; format: functional
[4] = tested on: Staphylococcus aureus; experiment: Antibacterial activity against methicillin-resistant Staphylococcus aureus 1118 for 18 to 20 hrs by broth microdilution method; format: functional
[5] = tested on: Staphylococcus aureus; experiment: Antibacterial activity against methicillin and ciprofloxacin-resistant Staphylococcus aureus 1721 for 18 to 20 hrs by broth microdilution method; format: functional
[6] = tested on: Streptococcus pneumoniae; experiment: Antibacterial activity against Streptococcus pneumoniae for 18 to 24 hrs by broth microdilution method; format: functional
[7] = tested on: Enterococcus faecium; experiment: Antibacterial activity against Enterococcus faecium for 18 to 20 hrs by broth microdilution method; format: functional
[8] = tested on: Enterococcus faecalis; experiment: Antibacterial activity against Enterococcus faecalis for 18 to 20 hrs by broth microdilution method; format: functional
[9] = tested on: Streptococcus pneumoniae; experiment: Antibacterial activity against Streptococcus pneumoniae 402 infected in sc dosed mouse assessed as reduction in 2 log CFU in lung compound administered as BID for 1 day measured 24 hrs after last dose; format: functional
[10] = tested on: Streptococcus pneumoniae; experiment: Antibacterial activity against Streptococcus pneumoniae 402 infected in sc dosed mouse assessed as reduction in 3 log CFU in lung compound administered as BID for 1 day measured 24 hrs after last dose; format: functional
[11] = tested on: Mus musculus; experiment: Dose-normalized AUC in mouse at 2 mg/kg, iv by LC-MS/MS analysis; format: ADME, organism-based; settings: in vivo
[12] = Volume of distribution at steady state in mouse at 2 mg/kg, iv by LC-MS/MS analysis; format: ADME, organism-based; settings: in vivo, read-out: Vdss
[13] = Half-life in mouse at 2 mg/kg, iv by LC-MS/MS analysis; format: ADME, organism-based; settings: in vivo
[14] = Clearance in mouse at 2 mg/kg, iv by LC-MS/MS analysis; format: ADME, organism-based; settings: in vivo

DNA gyrase subunit B, sequence (P0A0K8 whole entry): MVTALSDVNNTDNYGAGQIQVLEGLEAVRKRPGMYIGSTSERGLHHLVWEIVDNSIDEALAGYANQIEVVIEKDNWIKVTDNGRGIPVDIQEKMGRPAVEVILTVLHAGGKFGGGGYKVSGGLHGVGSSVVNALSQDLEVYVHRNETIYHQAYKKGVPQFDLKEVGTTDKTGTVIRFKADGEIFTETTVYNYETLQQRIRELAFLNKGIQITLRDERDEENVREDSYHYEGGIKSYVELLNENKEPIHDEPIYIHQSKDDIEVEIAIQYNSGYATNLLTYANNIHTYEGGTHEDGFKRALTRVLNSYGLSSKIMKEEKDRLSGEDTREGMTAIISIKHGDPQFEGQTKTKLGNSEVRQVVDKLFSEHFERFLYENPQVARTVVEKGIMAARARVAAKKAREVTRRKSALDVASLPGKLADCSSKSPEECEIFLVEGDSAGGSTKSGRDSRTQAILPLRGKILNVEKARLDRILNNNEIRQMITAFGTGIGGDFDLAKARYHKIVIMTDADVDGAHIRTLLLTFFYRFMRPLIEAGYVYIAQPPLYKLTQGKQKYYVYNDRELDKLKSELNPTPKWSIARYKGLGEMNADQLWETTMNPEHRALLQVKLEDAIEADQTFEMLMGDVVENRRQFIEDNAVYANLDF

Row | SMILES | IC50 [1] [nM] | IC50 [2] [nM] | MIC [3] [µg/mL] | MIC [4] [µg/mL] | MIC [5] [µg/mL] | MIC [6] [µg/mL] | MIC [7] [µg/mL] | MIC [8] [µg/mL] | ED [9] [mg/kg] | ED [10] [mg/kg] | AUC/dose [11] [µg·h/mL/mg/kg] | Vd [12] [L/kg] | half-life [13] [min] | clearance [14] [mL/min/kg]
1 | CCCc1cccc2c(-c3cnc(-c4ccnc(C(=O)O)c4)s3)n[nH]c12 | 11 | > 1000 | > 8 | > 8 | > 8 | 1 (≈ 2.74 µM) | > 8 | > 8 |  |  |  |  |  | 
2 | CCCc1c(OC)ccc2c(-c3cnc(-c4ccc(C(=O)O)c(F)c4)s3)n[nH]c12 | 15 |  | 0.06 (≈ 0.146 µM) | 0.125 (≈ 0.304 µM) | 0.125 (≈ 0.304 µM) | 0.125 (≈ 0.304 µM) | 0.03 (≈ 0.0729 µM) | 0.03 (≈ 0.0729 µM) | 60.6 | 103.7 | 0.893 | 0.32 | 18.6 | 19
3 | CCCc1c(O)ccc2c(-c3cnc(-c4cnc(C(=O)O)c(O)c4)s3)n[nH]c12 | 13 |  | 1 (≈ 2.52 µM) | 4 (≈ 10.1 µM) | 2 (≈ 5.05 µM) | 0.25 (≈ 0.631 µM) | 0.25 (≈ 0.631 µM) | 0.125 (≈ 0.315 µM) |  |  |  |  |  | 
4 | CCCc1cccc2c(-c3cnc(-c4ccc(C(=O)NCCN5CCCCC5)nc4)s3)n[nH]c12 | 20 | > 2000 | 2 (≈ 4.21 µM) | 1 (≈ 2.11 µM) | 2 (≈ 4.21 µM) | > 8 | > 8 | > 8 |  |  |  |  |  | 
5 | CCCc1cccc2c(-c3cnc(-c4ccc(CO)nc4)s3)n[nH]c12 | 15 | > 4000 | 0.06 (≈ 0.171 µM) | 0.06 (≈ 0.171 µM) | 0.06 (≈ 0.171 µM) | 8 (≈ 22.8 µM) | > 8 | > 8 |  |  |  |  |  | 
6 | CCCc1cccc2c(-c3cnc(-c4ccc(COP(=O)(O)O)nc4)s3)n[nH]c12 | 9 | 147 | 0.25 (≈ 0.581 µM) | 0.25 (≈ 0.581 µM) | 0.5 (≈ 1.16 µM) | 2 (≈ 4.65 µM) | 2 (≈ 4.65 µM) | > 8 |  |  |  |  |  | 
7 | CCCc1cccc2c(-c3cnc(-c4cnc(C(=O)O)c(O)c4)s3)n[nH]c12 | 11 | 60 | 0.125 (≈ 0.329 µM) | 0.06 (≈ 0.158 µM) | 0.125 (≈ 0.329 µM) | 0.5 (≈ 1.31 µM) | 0.125 (≈ 0.329 µM) | 0.125 (≈ 0.329 µM) |  |  |  |  |  | 
8 | CCCc1cccc2c(-c3cncs3)n[nH]c12 | 6500 |  | > 32 | > 32 | > 32 | > 32 | > 32 | > 32 |  |  |  |  |  | 
9 | CCOc1cccc2c(-c3cnc(-c4ccc(C(=O)O)c(F)c4)s3)n[nH]c12 | < 8 |  | 0.5 (≈ 1.3 µM) | 0.5 (≈ 1.3 µM) | 1 (≈ 2.61 µM) | 1 (≈ 2.61 µM) | 2 (≈ 5.22 µM) | 1 (≈ 2.61 µM) |  |  |  |  |  | 
10 | CCCOc1nccc2c(-c3cnc(-c4ccc(C(=O)O)nc4)s3)n[nH]c12 | < 8 |  | 4 (≈ 10.5 µM) | 4 (≈ 10.5 µM) | 8 (≈ 21 µM) | 0.06 (≈ 0.157 µM) | 2 (≈ 5.24 µM) | 2 (≈ 5.24 µM) |  |  |  |  |  | 
11 | CCCc1cccc2c(-c3cnc(-c4ccc(C(=O)OC)nc4)s3)n[nH]c12 | 29 | > 10000 | 0.5 (≈ 1.32 µM) | 1 (≈ 2.64 µM) | 2 (≈ 5.28 µM) | 0.125 (≈ 0.33 µM) | > 8 | > 8 |  |  |  |  |  | 
12 | CCCOc1nccc2c(-c3cnc(-c4ccc(CO)nc4)s3)n[nH]c12 | < 8 |  | 0.125 (≈ 0.34 µM) | 0.25 (≈ 0.68 µM) | 0.125 (≈ 0.34 µM) | 0.25 (≈ 0.68 µM) | 1 (≈ 2.72 µM) | 0.25 (≈ 0.68 µM) |  |  |  |  |  | 
13 | CCCc1cccc2c(-c3cnc(-c4cnc(C(=O)OC)c(O)c4)s3)n[nH]c12 | < 8 | 68 | 1 (≈ 2.54 µM) | 1 (≈ 2.54 µM) | 2 (≈ 5.07 µM) | 1 (≈ 2.54 µM) | 2 (≈ 5.07 µM) | 1 (≈ 2.54 µM) |  |  |  |  |  | 
14 | CCCc1cccc2c(-c3cnc(-c4cnc(C(=O)O)c(F)c4)s3)n[nH]c12 | < 8 | 24 | 0.125 (≈ 0.327 µM) | 0.125 (≈ 0.327 µM) | 0.25 (≈ 0.654 µM) | 0.25 (≈ 0.654 µM) | 0.25 (≈ 0.654 µM) | 0.25 (≈ 0.654 µM) |  |  |  |  |  | 
15 | CCOc1nccc2c(-c3cnc(-c4cnc(C(=O)O)cc4C)s3)n[nH]c12 | < 8 |  | 0.25 (≈ 0.655 µM) | 0.5 (≈ 1.31 µM) | 0.5 (≈ 1.31 µM) | 0.125 (≈ 0.328 µM) | 0.5 (≈ 1.31 µM) | 0.25 (≈ 0.655 µM) |  |  |  |  |  | 
